In publication PMC4527730, “A Pan-GTPase Inhibitor as a Molecular Probe” (PLoS ONE, 2015):
Several values for one entry are separate records, joined by “and”; a condition that tells them apart may be missing. Identical values can stand only once. Like-named read-outs stand apart in the source and are kept apart here.

Key:
[1] = Stability in PBS; type: physicochemical; settings: 23 °C, after 48 hours
Procedure: (§1) page 7: conclusion, the available data support the idea that compound CID1067700 has non-classical competitive character. […] Solubility was measured in phosphate buffered saline (PBS) at room temperature (23 °C). PBS by definition is 137 mM NaCl, 2.7 mM KCl, 10 mM sodium phosphate dibasic, 2 mM potassium phosphate [monobasic and a pH of 7.4. Detection was based on UV absorbance. […] Solubility was also assessed in the each of the four media used in the individual assays. […] Table 1S. […] Stability, depicted as closed circles in the graph, was assessed at room temperature (23 °C) in PBS (no antioxidants or other protectants and DMSO concentration below 0.1%). Stability data is depicted in Fig. S8 showing the loss of compound with time over a 48 h period with a minimum of 6 time points and providing the percent remaining compound at end of the 48 h period. Under these conditions, 77% of 1 remains after 48 hours. The degradation has not been further characterized.

[2] = test system: H358 cells; experiment: CellTiter-Glo viability assay; type: cell-based; settings: 48 h, compared with U937 FPRΔST control cells
Procedure: Cells were plated in a 96-well plate at 2000 cells per well and allowed to incubate overnight. Compound 1 or the same volume of DMSO was added on the second day. Viability was examined after 48 h. Data were collected from at least triplicate samples. Results were reported as viability treated/viability untreated (DMSO control). To evaluate apoptosis, the PE Annexin V Apoptosis Kit I was used. In 6-well plates, H358 cells were seeded at 50% confluence, while U937 FPRΔST cells were at 0.02 x 10^6 /mL. After overnight incubation, the cells were treated with compound 1 or DMSO. At 24 h or 48 h, cells were washed with PBS, and resuspended in 100 uL annexin-V binding buffer. After staining with annexin-V-FITC and 7-AAD, cells were analyzed on an Accuri C6 flow cytometer. At least 7,000 cells were measured per individual sample. The annexin^+AAD^- cells are defined as cells undergoing apoptosis. Data were collected from duplicate samples and the experiments were repeated. Results are given as the ratios of the apoptotic populations between the compound-treated and the DMSO-treated cells.

[3] = test system: SCC-12F cells; experiment: Cytotoxicity (CellTiter-Glo); type: cell-based; settings: up to 100 µM; 24 h and 3 h
Procedure: (§2) S3 Fig. Cytotoxicity of 1 and analogues. […]
(§3) µM over the experimental time frame. Compounds tested in the U937ΔST cells for 24 h (A) and (B), and for 1 h (C). Compounds tested in SCC-12F cells for 24 h (D) and (E), and for 3 h (F-I). Data are reported as ratios of luminescence to that of the DMSO treated control.
(§4) (1 picture or pasted object on this page, not shown here)
(§5) FITC-LDV dissociation assay
(§6) The dissociation kinetics of FITC-LDV was measured by flow cytometry following the addition of 100-fold excess of non-fluorescent LDV. (The kinetic constants obtained are the same within experimental error whether adding 100-fold or 200-fold excess non-fluorescent LDV). The fluorescence decrease was recorded (see B in S2 Fig.). For the resting state, when a fluorescence plateau was reached after the addition of LDV-FITC, LDV was added to the cell suspension. For the high affinity state, when the fluorescence reached equilibrium after the sequential addition of LDV-FITC and N-formyl peptide, LDV was added. To study the effect of a compound, LDV was added at the time point when the fluorescence approached a […]. The fluorescence decrease curve was fitted to Equation 2 to obtain the dissociation rate constant koff. […] Therefore the binding affinity can also be estimated by comparing the measured koff. […]

[4] = test system: U937 FPRΔST cells; experiment: Cytotoxicity (CellTiter-Glo); type: cell-based; settings: up to 100 µM; 24 h and 1 h
Procedure: as §2, §3, §4, §5, §6

[5] = Solubility in PBS and assay media; type: physicochemical
Procedure: as §1

[6] = molecular target: Rac1 (Homo sapiens, UniProt P63000); experiment: Multiplex bead-based flow cytometry dose-response of fluorescent guanine nucleotide binding
Procedure: Briefly, individual GST-GTPases were separately attached to glutathione microsphere beads that were labeled with varying intensity of red fluorescent dye, and subsequently combined. The buffer contains 30 mM HEPES (pH 7.2), 150 mM KCl, 20 mM NaCl, 0.1% BSA, 1 mM DTT, 1 mM EDTA and 0.1% NP-40. For Rho A and Rac1, 1 mM EDTA was replaced with 1 mM MgCl2 to stabilize the protein. […] To study whether the compounds are slow binders, BODIPY^- FL GTP was added either immediately or 2 h after compound addition. […] The curves were fitted to the sigmoidal dose-response equation using GraphPad Prism. Percent response was calculated as the ratio of (sample MCF–negative control MCF) / (positive control MCF–negative control MCF).

[7] = test system: integrin VLA-4 on U937 FPRΔST cells; experiment: Integrin activation assay (LDV-FITC binding); type: cell-based; settings: LDV-FITC 4 nM, fMLFF 100 nM
Procedure: The procedure followed the protocols described previously. U937 FPRΔST cells (0.4~0.8 x 10^6 cells/mL) were continuously stirred with a magnetic stir bar at 500 rpm in a test tube. The fluorescence was recorded on a FACScan flow cytometer. The baseline fluorescence of the cells was established for 30 s. Then LDV-FITC at 4 nM was added. After the fluorescence stabilized at ~120 s, the chemotactic ligand fMLFF at 100 nM was added for stimulation. […] All the concentrations given were the final concentrations. The percent inhibition was calculated according to Equation 1 (Supporting Information).

[8] = molecular target: Cdc42 Q61L (Homo sapiens, UniProt P60953, Q61L); experiment: Multiplex bead-based flow cytometry dose-response of fluorescent guanine nucleotide binding; settings: EC50 Cdc42 Q61L
Chain of Cdc42 Q61L (P60953 whole entry Q61L): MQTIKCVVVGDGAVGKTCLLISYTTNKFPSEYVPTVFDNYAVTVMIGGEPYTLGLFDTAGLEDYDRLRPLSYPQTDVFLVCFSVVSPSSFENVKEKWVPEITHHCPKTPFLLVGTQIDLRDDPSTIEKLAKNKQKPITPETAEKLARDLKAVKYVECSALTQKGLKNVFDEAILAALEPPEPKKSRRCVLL
Procedure: Briefly, individual GST-GTPases were separately attached to glutathione microsphere beads that were labeled with varying intensity of red fluorescent dye, and subsequently combined. The buffer contains 30 mM HEPES (pH 7.2), 150 mM KCl, 20 mM NaCl, 0.1% BSA, 1 mM DTT, 1 mM EDTA and 0.1% NP-40. […] To study whether the compounds are slow binders, BODIPY^- FL GTP was added either immediately or 2 h after compound addition. […] The curves were fitted to the sigmoidal dose-response equation using GraphPad Prism. Percent response was calculated as the ratio of (sample MCF–negative control MCF) / (positive control MCF–negative control MCF).

In the case of `CC1(C)Cc2c(sc(NC(=S)NC(=O)c3ccccc3)c2C(=O)O)CO1` [Compound 1], the compound remaining [1] is reported as 77%, the viability [2] is reported as “decreased the viability of H358 cells more than the U937 FPRΔST cells” and the toxicity [3] is reported as “did not show toxicity”. The toxicity [4] was “did not show toxicity”, the solubility ([5]; Dose Response-buffer (HEPES buffer), 23 °C, aqueous with cosolvent or surfactant or cyclodextrin, 30mM HEPES, pH 7.5, 100mM KCl, 20mM NaCl, 0.01% (v/v) NP-40, read-out: Solubility, Dose Response-buffer) was > 68.1 µg/mL and > 174 µM and the solubility ([5]; EGFR degradation assay medium, DMEM/F-12, read-out: Solubility, EGFR degradation assay medium) was > 116 µg/mL and > 297 µM. The solubility ([5]; LDV-FITC assay buffer, RPMI 1640 + 10% HI-FBS, read-out: Solubility, LDV-FITC assay buffer) was > 116 µg/mL and > 297 µM, the solubility ([5]; phosphate buffered saline (PBS), PBS pH 7.4, 23 °C, read-out: PBS solubility) was > 116 µg/mL and > 297 µM and the EC50 ([6]; EC50 Rac1, BODIPY-FL GTP binding, 2 h at 4°C, 1 mM MgCl2) was 0.062 ± 0.049 µM. The EC50 ([6]; EC50 Rac1, concentration dependence on BODIPY-FL GDP) was 0.099 µM, the “integrin VLA-4 activation (LDV-FITC binding after fMLFF)” value [7] was “caused diminished binding” and the EC50 ([8]; BODIPY-FL GTP binding, 2 h at 4°C) was 0.047 ± 0.038 µM. It also gave an EC50 ([8]; concentration dependence on BODIPY-FL GDP) of 0.35 µM.
